# Patent publication US20210255168A1, “A METHOD OF PRECISION CANCER THERAPY” (KING FAISAL SPECIALIST HOSPITAL & RESEARCH CENTRE, priority 2018, published 2021)
# Assays:
# [1] = system: TNF-α-ARE luciferase reporter in MDA-MB-231 cells; test: Post-transcriptional ARE luciferase reporter assay (kinase inhibitor library screen); format: cell-based; conditions: 0.5, 2 and 5 μM, ARE and non-ARE reporters
# [2] = system: TNF-α-ARE luciferase reporter in MDA-MB-231 cells; test: as above; format: cell-based; conditions: for reduction of ARE-reporter activity (in words): PK inhibitor library
# Source text: Reporters were designed to be driven by the ribosomal protein subunit 30 (RPS30) promoter. The promoter was amplified using PCR with primers specific to the flanking region of the RPS30 promoter sequence. The gene structure of RPS30 was obtained from the Ribosomal Protein Database (http://ribosome.med.miyazaki-u.ac.jp). The forward and reverse primers included the restriction sites, EcoR V and SalI sites. Amplified DNA fragments were then resolved in 1.2%-1.5% agarose gel and the amplicon bands were excised, purified and cloned into the promoterless plasmid. TNF-α 3′-UTR and TNF-α ARE were used to study the role of AU-rich elements in the action of PKs inhibitors. The AU-rich sequence that comprised 250 bases from TNF-α 3′UTR (1200-1450 bp, NM_00059) was amplified by PCR using the forward primer 5′-[…]-3′ (SEQ ID NO:1) and the reverse primer 5′-[…]-3′ (SEQ ID NO:2). The TNF-α-ARE sequence was made by annealing two synthetic complementary oligonucleotides of 70 bases that correspond to TNF-α ARE. The control reporter was constructed to have the basic structure of post-transcriptional reporter except 3′UTR which lack the AU-rich element sequence like this of bovine growth hormone. Any ARE reiterations or variations can be used, with minimal sequence is AUUUA, preferably, WW(AUUUA)WW, where W=A or U. They can be also repeated as an overall, e.g., AUUUAUUA, anywhere from 0 to 10 repeats as example.
# Selleckchem Kinase Inhibitor Library that includes a selection of 378 pharmacologically active inhibitors of a number of protein kinases was purchased from Selleckchem. (Houston, Tex., USA). This library is a collection of 378 kinase inhibitors some of which have been approved by the FDA. Each compound is provided as a pre-dissolved 10 mM dimethyl sulfoxide (DMSO) solution as a 96 well format tube (100 μL). The compounds were diluted by OPTI-MEM (Thermo Fisher Scientific, Waltham, Mass., USA) to a final concentration of 5 μM.
# Post-transcriptional and control reporter constructs were transfected to MDA-MB-231 cells separately that were seeded in 96-well microplates at a density of 4×10^4 cells/well and incubated overnight. Using lipofectamine 2000 protocol (Invitrogen, Carlsbad, Calif., USA), the cells were transfected with 10 ng of either RPS30-luciferase-control 3′UTR or RPS30-luciferase-ARE 3′UTR reporter plasmids. After 24 h, the cells were treated with each member of protein kinase inhibitors kit for 24 h. Then, luciferase reaction was performed as prescribed by manufacture's protocol (Nano-Glo Luciferase, Promega, Madison, Wis., USA)/well. After 15 minutes, the reporters' activities were measured through the measurement of the chemiluminescence (FIG. 8) after treatment using a Zenith 3100 (Anthos Labtec, Eugendorf, Austria).
# Data are presented as means±standard error of the mean (SEM). Two-sample Student's t-test was used to determine the differences between two data sets. One-way analysis of variance (ANOVA) was used to compare three or more data columns. Two-way analysis of variance was used to analyze two groups of data, each having two data columns. Analysis was performed using GraphPad Prism version 6.00 for Windows, (GraphPad Software, La Jolla Calif., USA). For high throughput screening (HTS) hit selection (protein kinase inhibitors), strictly standardized mean difference (SSMD) test was used. This statistical test measures the size of effect of each member in a group relative to the other members. It is the mean of each member divided by the standard deviation of the difference between two random values from different groups. Based on the value of SSMD, the effect of each member of the library was classified as strong (β≥5), moderate (1≤β<5), and weak (β<1). In this study, only drug with SSMD score more than or equal to 5 or less than or equal to −5, i.e. strong β, where selected in the primary screening. […]
# [3] = system: MDA-MB-231, MCF7, and SKBR3 cell lines; test: mRNA expression in breast cancer cell lines; format: cell-based; conditions: MCF7, MDA-MB-231 and SKBR3; most of the cancer cell lines
# Experimental: Cells were cultured in six-well plates and either treated with DMSO or drugs for 24 h. Total RNA was then extracted using Trizol reagent (TRI Reagent, Sigma-Aldrich, St Louis, Mo.). The cells were lysed directly on the culture dish by adding 1 ml of the TRI Reagent per 10 cm^2 surface area. Reverse transcription for preparation of cDNA was performed using 3 μg of total RNA, 150 ng random primers, 0.1 M dithiothreitol (DTT), 10 mM deoxynucleotide triphosphate (dNTP) and 200 U of SuperScript II (Invitrogen, Foster City, Calif.). The quantitative RT-QPCR was performed in multiplex in the Chroma 4 DNA Engine cycler (BioRad, Hercules, Calif., USA) using FAM-labelled TaqMan probes (Applied Biosystems, Foster City, Calif., USA) for TTP (ZFP36), HuR (ELAVL1), uPA (PLAU)-CXCR4, MMP-1, MMP-13, IL-8, PLK-1 while a VIC-labelled glyceraldehyde-3-phosphate dehydrogenase (GAPDH) probe was used as the endogenous control. Samples were amplified in triplicate and quantification of relative expression was performed using the estimation of quantitation cycle (Cq) method.
# PLK1 kinase, as an example of kinases involved in cancer, is over-expressed in breast cancer cell lines, including MCF7, MDA-MB-231 and SKBR3 when compared to the normal-like MCF10A (FIG. 5A). Many kinases are either over-expressed or constitutively active or hyperactive in cancer states when compared to normal cells. As example of inhibitors that are found in the precision cancer therapy screen, Volasertib and Regorafenib (VEGFR kinase inhibitor) led to reduction in the level of ARE-containing mRNA, uPA in most of the cancer cell lines. (FIG. 5B).
# The present inventors further disclose that the effect of PLK-1 inhibition is consistent among different types of breast cancer including triple-negative, […], and ER-PR negative breast cancers, as shown through the actions induced by PLK-1 inhibitor volasertib on MDA-MB-231, MCF7, and SKBR3 cell lines, namely increasing the expression of TTP, decreasing the HuR level, and downregulating the TTP target uPA. […] Accordingly, the present inventor discloses that any protein kinase inhibitor which post-transcriptionally regulates expression of cancer-related genes is suitable for precision cancer therapy. Further disclosed is a method of treatment of cancer comprising administering said protein kinase inhibitor, to a patient in need thereof.
# PLK-2 = PLK-2 (Homo sapiens, UniProt Q9NYY3); conditions: cited from earlier work
# PLK-3 = PLK-3 (Homo sapiens, UniProt Q9H4B4); conditions: cited from earlier work
# Sequence of PLK-3 (Q9H4B4 whole entry, species assumed): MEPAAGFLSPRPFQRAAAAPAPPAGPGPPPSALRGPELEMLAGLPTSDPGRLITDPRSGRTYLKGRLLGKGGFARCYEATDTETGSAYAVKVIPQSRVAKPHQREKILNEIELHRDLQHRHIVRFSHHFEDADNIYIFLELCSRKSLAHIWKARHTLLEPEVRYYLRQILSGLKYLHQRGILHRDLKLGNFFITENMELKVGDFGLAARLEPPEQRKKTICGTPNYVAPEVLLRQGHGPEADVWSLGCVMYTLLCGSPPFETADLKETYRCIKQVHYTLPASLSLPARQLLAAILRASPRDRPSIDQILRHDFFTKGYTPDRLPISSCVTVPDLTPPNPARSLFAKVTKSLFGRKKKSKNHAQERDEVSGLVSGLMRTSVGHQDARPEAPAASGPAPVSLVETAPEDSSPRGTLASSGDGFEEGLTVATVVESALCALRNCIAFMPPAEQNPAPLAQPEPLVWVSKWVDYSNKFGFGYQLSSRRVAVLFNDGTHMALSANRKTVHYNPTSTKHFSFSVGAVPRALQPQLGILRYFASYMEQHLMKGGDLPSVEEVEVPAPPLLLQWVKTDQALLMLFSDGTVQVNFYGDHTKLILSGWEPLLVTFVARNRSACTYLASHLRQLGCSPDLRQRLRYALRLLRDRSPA
# Sequence of PLK-2 (Q9NYY3 whole entry, species assumed): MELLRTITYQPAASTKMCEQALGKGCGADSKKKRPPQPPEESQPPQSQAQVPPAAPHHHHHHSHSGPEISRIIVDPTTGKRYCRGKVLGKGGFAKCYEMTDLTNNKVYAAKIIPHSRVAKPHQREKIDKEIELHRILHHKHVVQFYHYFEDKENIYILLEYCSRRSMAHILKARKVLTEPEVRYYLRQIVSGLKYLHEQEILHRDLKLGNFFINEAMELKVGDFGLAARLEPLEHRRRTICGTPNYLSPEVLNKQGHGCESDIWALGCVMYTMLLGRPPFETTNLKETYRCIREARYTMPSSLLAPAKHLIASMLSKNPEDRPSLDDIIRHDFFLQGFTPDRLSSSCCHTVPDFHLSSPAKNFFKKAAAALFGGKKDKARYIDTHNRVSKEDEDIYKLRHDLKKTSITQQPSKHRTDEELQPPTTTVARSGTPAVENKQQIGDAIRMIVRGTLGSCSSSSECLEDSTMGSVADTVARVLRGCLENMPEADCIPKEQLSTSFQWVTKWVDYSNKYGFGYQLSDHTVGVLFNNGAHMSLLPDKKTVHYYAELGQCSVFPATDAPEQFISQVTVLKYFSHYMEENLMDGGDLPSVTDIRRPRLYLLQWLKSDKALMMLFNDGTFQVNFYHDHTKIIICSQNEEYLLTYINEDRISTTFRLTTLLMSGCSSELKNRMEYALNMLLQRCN
molecule,measurement,setting,value
Cc1ccc(NC(=O)c2cccc(C(C)(C)C#N)c2)cc1Nc1ccc2ncn(C)c(=O)c2c1 [AZ628],ARE-dependent mRNA regulation confirmed in later stages of screening compared to a non-ARE reporter,[1],confirmed to be involved in ARE-dependent mRNA regulation
CC[C@@H]1C(=O)N(C)c2cnc(Nc3ccc(C(=O)NC4CCN(C)CC4)cc3OC)nc2N1C1CCCC1 [BI 2536],reduction of TNF-ARE luciferase reporter activity,"[2]; primary screening, 5 μM",35%
same,reduction in percent reporter activity in the secondary screening compared to the control reporter,"[2]; secondary screening, ARE vs non-ARE control reporter",16%
C[C@@H](Oc1cc(-n2cnc3ccc(CN4CCN(C)CC4)cc32)sc1C(N)=O)c1ccccc1C(F)(F)F [GSK461364],reduction of ARE-reporter activity (in words),[2],did not reduce
COc1ccc(S(=O)(=O)N(C(C)=O)c2ccccc2/C=C/c2cc[n+]([O-])cc2)cc1 [HMN-214],reduction of ARE-reporter activity (in words),[2],did not reduce
CN1CCN(c2ccc(OC(F)(F)F)c(Nc3ncc4c(n3)-c3c(c(C(N)=O)nn3CCO)CC4)c2)CC1 [NMS-P937],reduction of ARE-reporter activity (in words),[2],did not reduce
CNC(=O)c1cc(Oc2ccc(NC(=O)Nc3ccc(Cl)c(C(F)(F)F)c3)c(F)c2)ccn1 [Regorafenib],ARE-dependent mRNA regulation confirmed in later stages of screening compared to a non-ARE reporter,[1],confirmed to be involved in ARE-dependent mRNA regulation
same,level of ARE-containing mRNA uPA in cancer cell lines,[3],reduction
COc1cc(OC)c(/C=C/S(=O)(=O)Cc2ccc(OC)c(NCC(=O)O)c2)c(OC)c1 [rigosertib],selectivity (PLK-1) against PLK-2,PLK-2,more than 30 fold
same,reduction of ARE-reporter activity (in words),[2],did not reduce
same,activity on PLK-3,PLK-3,no activity
Ro3280,reduction of ARE-reporter activity (in words),[2],did not reduce
